From US11247994B2, “6-dithio-substituted-2′-deoxyguanosine compound, preparation method thereof and use thereof” (ZHEJIANG UNIVERSITY, priority 2018, dated 2022)

Key:
[1] = test system: human liver cancer cells HepG2; assay: MTT assay, tumor cell growth inhibition, HepG2; assay type: cell-based; details: 48 hours
Description: (§1) MTT Assay—Inhibitory Effect of 6-dithio-substituted-2′-deoxyguanosine Derivatives on Tumor Cell Growth
(§2) We measured the tumor cell growth inhibitory activity of candidate compounds by MTT assay. Human tumor cells in logarithmic growth phase were digested with 0.25% pancreatin for a certain time, centrifuged, re-suspended and counted with a blood cell counting plate to prepare a cell suspension, and the cell suspension was adjusted to 1.0×10^4-1×10^5 cells/mL. The cell suspension was inoculated into a 96-well culture plate, 100 μL per well, and cultured in an incubator with saturated humidity, 37° C. and 5% CO2 for 24 hours until the cells completely adhered to the wall. The test compound was diluted to the required concentration with a complete medium, the complete medium of the 96-well culture plate inoculated with human tumor cells was sucked out, a medicament-containing medium was added, 100 μL per well, the final concentration of DMSO was less than 0.1%, and the culture plate was put in an incubator for 48 hours. 10 μl of MTT was added to each well of the 96-well plate, and the culture was continued for 4 h. The culture was stopped and the culture solution in the well was carefully sucked off. 150 μL DMSO was added to each well, and shaken at a low speed for 10 min on a shaking table, so that the crystal was fully dissolved. The absorbance of each well was measured at OD 570 nm of an enzyme-linked immunosorbent assay instrument. At the same time, zeroing wells (the culture medium, MTT, dimethyl sulfoxide) and control wells (cells, a drug dissolution medium with the same concentration, a culture solution, MTT, dimethyl sulfoxide) were set up, and the cell growth inhibitory activity was calculated with the corresponding solvents as the control. 3-6 multiple wells in each group were set up with repetition of several times. Cell viability of control=(Adrug group−Azeroing well)/(Acontrol well−Azeroing well)*100%. Drawing was drawn, the data were fitted into a concentration response curve with a variable slope, and IC50 value was calculated from the curve.

[2] = test system: human breast cancer cells Bcap37; assay: MTT assay, tumor cell growth inhibition, Bcap37; assay type: cell-based; details: 48 hours
Description: as §1, §2

[3] = test system: human melanoma cells A375; assay: MTT assay, tumor cell growth inhibition, A375; assay type: cell-based; details: A-375, 48 hours
Description: as §1, §2

[4] = test system: human colon cancer cells HCT116; assay: MTT assay, tumor cell growth inhibition, HCT116; assay type: cell-based; details: HCT-116, 48 hours
Description: as §1, §2

[5] = test system: human leukemia cells K562; assay: MTT assay, tumor cell growth inhibition, K562; assay type: cell-based; details: 48 hours
Description: as §1, §2

[6] = test system: NCM460; assay: MTT assay, cell growth inhibition, NCM460; assay type: cell-based; details: Homo sapiens, 48 hours, read-out: Tumor cell growth inhibition IC50, NCM460
Description: as §1, §2

[7] = test system: human breast cancer cells MCF7; assay: MTT assay, tumor cell growth inhibition, MCF7; assay type: cell-based; details: 48 hours
Description: as §1, §2

[8] = Blood biochemical analysis and HE staining of tissues in HCT116 tumor-bearing nude mice; assay type: in vivo; details: tail vein once every two days, 12 times, blood 48 hours after the last treatment
Procedure: (§3) We took human colon cancer cell line HCT116 as the research object, and established a subcutaneous transplanted tumor model of human colon cancer in 32 immunodeficient nude mice. The 24th generation HCT116 cells in logarithmic growth phase were digested with pancreatin to prepare a single-cell suspension, and 1×10^7 cells were inoculated subcutaneously in the right armpit of male nude mice about 5 weeks old. After inoculation, cyclophosphamide (100 mg/kg) was injected intraperitoneally for two consecutive days. […] On the 20th day after colon cancer cell HCT116 was implanted subcutaneously, nude mice were divided into 7 groups by a random number table method, including a test drug group, a positive control group and a blank control group. Specifically, group A: the compound A was administrated; Group B: the compound B was administrated; Group C: the compound C was administrated; Group D: the compound D was administrated; Group E: the compound 6-thio-DG was administrated; Group F: the compound PX-12 was administrated; Group G: blank group, without administration of any compound. Except group C with 3 rats and group G with 4 rats, all other 5 groups had 5 rats, they mice were labeled and injected by tail vein once every two days for 24 days, 12 times, with the dose of compound A being 2 mg/kg for the first 8 times and 10 mg/kg for the last 4 times, and the dosages of other drugs being the same molar weights. The tumor volume was calculated by taking the length of the tumor as the longest diameter and the width as the corresponding vertical diameter, and the tumor volume V=(length×width^2) mm^3/2. 48 hours after the last treatment, blood was taken from the eyes, and then the animals were killed. Blood was centrifuged to get the supernatant, and then blood biochemical analysis was performed. Paraffin embedded sections of fixed tissues were stained with HE. The tumor mass in a frozen tissue was sectioned in a frozen state, and then stained by DAPI and TUNEL to judge the apoptosis of the tumor tissue in nude mice.

[9] = test system: human colon cancer cell line HCT116 subcutaneous transplanted tumor; assay: Tumor-bearing test in nude mice, HCT116 subcutaneous transplanted tumor (tumor volume, TUNEL); assay type: in vivo; details: HCT116 model
Description: Tumor-Bearing Test in Nude Mice—Inhibitory Effect of 6-Dithio-Substituted-2′-Deoxyguanosine Derivatives on the Growth of Subcutaneous Transplanted Tumor Tissue in Nude Mice
1) Tumor-Bearing Mouse Model of Human Colon Cancer Cell Line HCT116
as §3

## CC(C)SSc1nc(N)nc2c1ncn2[C@H]1C[C@H](O)[C@@H](CO)O1 [D, 6-(isopropyldithio)-2′-deoxyguanosine]
[1]
  IC50: < 10 µM
[2]
  IC50: 22.8 µM
[3]
  IC50: 0.37 µM
[4]
  IC50: 1.09 µM
[5]
  IC50: 15.7 µM
[6]
  IC50: > 1000 µM
[7]
  IC50: 41.3 µM
[8]
  Alanine aminotransferase: 28.2 U/L
  Albumin: 25.0 g/L
  Alkaline phosphatase: 31.5 U/L
  Aspartate aminotransferase: 122.2 U/L
  BUN: 8.80 mmol/L
  Chloride ion: 115.3 mmol/L
  Creatine kinase: 1597 U/L
  Creatinine: -3.0 µmol/L
  Glucose: 3.51 mmol/L
  Potassium ion: 6.43 mmol/L
  Sodium ion: 157.5 mmol/L
  Total bilirubin: -1.00 µmol/L
  Total cholesterol: 3.21 mmol/L
  Total protein: 54.2 g/L
  Triglyceride: 0.70 mmol/L
[9]; frozen tumor sections, DAPI and TUNEL, G group = blank
  Extent of apoptosis in tumor tissue (TUNEL staining, rank order): D group>A group≈B group≈E group (6-thio-dG group)>C group>F group (PX-12 group)>G group (KB group)
[9]; tail vein once every two days for 24 days, compound A 2 mg/kg first 8 times, 10 mg/kg last 4 times, others equimolar, KB = blank
  Inhibitory effect on the growth of subcutaneous transplanted tumor tissue in nude mice (rank order, from slope of tumor volume): D>B≈A≈6-thio-dG>PX-12>C>KB
[9]; tail vein once every two days for 24 days, equimolar doses
  Ability to inhibit the growth of transplanted tumor tissue compared with positive controls: stronger than that of positive control 6-thio-dG and PX-12
